The source made the active and inactive calls. No rule for the calls is given here.

This experiment has as its target Influenza A virus M2 proton channel (A/TW/4845/1999 H1N1). Description: NMR binding screen, influenza A virus M2 proton channel, Kd (AID 1549). The note with it: M2 protein.
As for `CCC(C)C(=O)O[C@@H]1C[C@@]2(C)[C@H](c3ccoc3)OC(=O)CC23OC2(C)OC34[C@H](OC(=O)C(C)C)[C@@]3(O)[C@@H](OC(=O)C5(C)OC5C)[C@@]5(C)C[C@]3(O)[C@@](C)([C@H]5CC(=O)OC)C14O2` (stereo partly specified), the Kd was > 4 mM (inactive). With `CC1(C)CC(NC(=O)/C=C/C(=O)O)CC(C)(C)N1`, the Kd is > 4 mM (inactive). The figure for `Cc1ccccc1CSc1nnc(C)n1N` is > 4 mM (inactive); for `CC[C@H]1CN2CCc3cc(OC)c(OC)cc3C2C[C@@H]1CC1NCCc2cc(OC)c(OC)cc21` (stereo partly specified) it is > 4 mM (inactive). In the case of `NC(=O)C12CC3CC(C1)C(=O)C(C3)C2`, the Kd was > 4 mM (inactive). Then `CCC(=O)Oc1ccc(N2C(=O)CCC2=O)cc1`, with > 4 mM (inactive); and `COc1ccc2ccc(=O)oc2c1`, with > 4 mM (inactive); and `CN(C)N1C(=O)C2C3C=CC(O3)C2C1=O` (stereo unspecified), with > 4 mM (inactive). Turning to `Nc1ccncc1`, the Kd was > 4 mM (inactive). `C=CC(C1=CC(=O)C(OC)=CC1=O)c1ccc(O)cc1` (stereo unspecified): the Kd was > 4 mM (inactive). The figure for `Nc1cccc(S(=O)(=O)N2CCCC2)c1` is > 4 mM (inactive). Turning to `Cc1noc(C)c1C(=O)NC1=NCCS1`, the Kd was > 4 mM (inactive). Consider `COc1cc(O)cc(/C=C/c2ccccc2)c1`, for which the Kd was > 4 mM (inactive). The figure for `c1ccc(Cc2nnc3sc(-c4cccnc4)nn23)cc1` is > 4 mM (inactive). Take `CCc1sc(C(=O)NC)cc1Br`: the Kd is > 4 mM (inactive). Then `O=C(O)c1ccc2sccc2c1`, with > 4 mM (inactive); and `OC[C@H]1O[C@@H](n2cnc3c(NCc4ccco4)ncnc32)[C@H](O)[C@@H]1O`, with > 4 mM (inactive). As to `O=C1CSC(=O)N1CN1CCOCC1`, the Kd was > 4 mM (inactive).

With `NCC(N)C(=O)c1ccccc1` (stereo unspecified), the Kd is > 4 mM (inactive). Then `O=C1CC(=O)N2N=C(c3ccccc3)SC2=N1`, with > 4 mM (inactive); and `CCCn1c(S(=O)(=O)O)nc2ccccc21`, with > 4 mM (inactive); and `O=C(O)Cn1cc(C(F)(F)F)ccc1=O`, with > 4 mM (inactive). Consider `NC(=O)C1CCN(C(=S)c2ccccc2)CC1`, for which the Kd is > 4 mM (inactive).

Turning to `OC/C=C/c1ccc(O)c(O)c1`, the Kd was > 4 mM (inactive). Then `Cc1cc(N2CCN(C)CC2)ncn1`, with > 4 mM (inactive); and `Cc1ncc(CC(=O)O)s1`, with > 4 mM (inactive). Turning to `Cn1c(=O)c2cn3ncccc3c2n(C)c1=O`, the Kd is > 4 mM (inactive). Take `CC(C(N)=O)N1C(=O)c2ccccc2C1=O` (stereo unspecified): the Kd was > 4 mM (inactive). Then `CC(=O)OC1CCC23CC1(C)CCC2C(C)(C)CC3OC(C)=O` (stereo unspecified), with > 4 mM (inactive). Then `CC(=O)Nc1ccc(-c2cn3ccsc3n2)cc1`, with > 4 mM (inactive); and `c1ccc(Cc2nnc3sc(-c4ccncc4)nn23)cc1`, with > 4 mM (inactive). The figure for `O=C(O)c1ccc(-n2cccn2)cc1` is > 4 mM (inactive); for `CC(=O)Oc1ccccc1N1C(=O)C=CC1=O` it is > 4 mM (inactive). For `COc1cc(C(=S)N2CCC(C(N)=O)CC2)ccc1O`, the Kd is > 4 mM (inactive). In the case of `CC(=O)Nc1cccc(Cn2cccn2)c1`, the Kd is > 4 mM (inactive). As for `COc1cc(O)c2c(c1)C(=O)c1cc(C)cc(O)c1C2=O`, the Kd was > 4 mM (inactive). Then `OCc1ccc(-n2cccn2)cc1`, with > 4 mM (inactive). As for `Nc1ncnc(Nc2ccccc2C(F)(F)F)n1`, the Kd is > 4 mM (inactive). With `O=C(O)c1cc(O)c(O)c(O)c1`, the Kd is > 4 mM (inactive).

`Cc1nc(NC(=O)c2cccnc2)ccc1Br`: the Kd is > 4 mM (inactive). With `O=C(CSc1ncn[nH]1)c1ccc2c(c1)OCCO2`, the Kd was > 4 mM (inactive). As to `CCSc1nc(=S)n(CC)c(C)c1C(C)=O`, the Kd was > 4 mM (inactive). `NC1=C([N+](=O)[O-])C(=O)c2ccccc21`: the Kd is > 4 mM (inactive). Then `Cc1n[nH]c(C)c1N`, with > 4 mM (inactive); and `Cc1cc(O)cc(=O)o1`, with > 4 mM (inactive). Take `C=C[C@@](C)(O)CCC1C(=C)CCC2[C@@](C)(CO)CCC[C@]12C` (stereo partly specified): the Kd is > 4 mM (inactive). The figure for `NC(=O)c1cccc2c(=O)oc3ccccc3c12` is > 4 mM (inactive); for `Nc1ccc2sccc2c1` it is > 4 mM (inactive). Turning to `O=C(O)CC12CC3CC(CC(O)(C3)C1)C2`, the Kd was > 4 mM (inactive). For the compound `Cn1c(NCc2ccco2)nc2ccccc21`, the Kd is > 4 mM (inactive). Take `COC(=O)c1ccc(N2CCOCC2)nc1`: the Kd was > 4 mM (inactive). With `O=C(c1nc2ncccn2n1)N1CCc2ccccc2C1`, the Kd is > 4 mM (inactive). The figure for `CCOC(=O)c1ccc(F)cc1F` is > 4 mM (inactive).

In the case of `COc1ccc2c(c1OC)C(=O)N(c1ncn[nH]1)C2`, the Kd was > 4 mM (inactive). Then `CC(C)(C)C(=O)N1CCCC1C(=O)O` (stereo unspecified), with > 4 mM (inactive); and `Cc1ccc(NC(=O)N2CCC(C(N)=O)CC2)cc1`, with > 4 mM (inactive); and `CC(=O)c1ccc[nH]1`, with > 4 mM (inactive). Then `Cc1cccc(C)c1N1C(=O)CCC1=O`, with > 4 mM (inactive); and `Cc1onc(-c2ccccc2)c1C(=O)Nc1ccncc1`, with > 4 mM (inactive); and `O=C(Nc1cccnc1)N1CCOCC1`, with > 4 mM (inactive). For `CC(=O)c1c(C)nc(-c2ccc(Cl)cc2Cl)n1O`, the Kd was > 4 mM (inactive). Then `Cc1cccc(NC(=O)c2ccccc2C(=O)O)c1`, with > 4 mM (inactive); and `COc1cccc2c(=O)n(CC(N)=O)ccc12`, with > 4 mM (inactive).

`OCc1ccc2c(c1)OCCO2`: the Kd is > 4 mM (inactive). As for `CCOC(=O)C1CCN(Cc2ccccc2)CC1`, the Kd is > 4 mM (inactive).

As for `CCC(C)OC1CCS(=O)(=O)C1` (stereo unspecified), the Kd is > 4 mM (inactive). `Cc1ccc(C(=O)NC2=NCCS2)o1`: the Kd is > 4 mM (inactive).

`Nc1cccc(-n2cnnn2)c1`: the Kd was > 4 mM (inactive). Regarding `COc1c(F)c(F)c(-c2csc(N)n2)c(F)c1F`, the Kd was > 4 mM (inactive). Then `NS(=O)(=O)c1ccc(NC(=O)c2cccs2)cc1`, with > 4 mM (inactive); and `S=c1oc(-c2ccncc2)nn1CCc1ccncc1`, with > 4 mM (inactive). Consider `COc1ccc(C(=O)/C=C/c2ccccc2)cc1`, for which the Kd was > 4 mM (inactive). As for `O=[n+]1cc(-c2ccccc2)n([O-])c2c1CCC2`, the Kd is > 4 mM (inactive). `O=C(O)c1cccc(O)c1O`: the Kd was > 4 mM (inactive).

On to `CN1C2CC[C@@H]1CC(OC(=O)[C@H](CO)c1ccccc1)C2` (stereo partly specified), for which the Kd is > 4 mM (inactive). With `CSc1ccc(/C=c2\sc3ncnn3c2=O)cc1`, the Kd is > 4 mM (inactive). With `Cc1cc(C)n(-c2ccc(N)cc2)n1`, the Kd was > 4 mM (inactive). For `CCOc1ccc(N2C(=O)CCC2=O)cc1`, the Kd is > 4 mM (inactive). Then `CC(C)c1nnc(N)s1`, with > 4 mM (inactive); and `CNC(=O)c1ccccc1N`, with > 4 mM (inactive); and `CCNCC(O)c1ccc([N+](=O)[O-])cc1` (stereo unspecified), with > 4 mM (inactive). Then `CSCCNC(C)=O`, with > 4 mM (inactive). The figure for `OC1CSc2ncnn2C1` (stereo unspecified) is > 4 mM (inactive). Regarding `OCC(O)Cc1ccc2c(c1)OCO2` (stereo unspecified), the Kd is > 4 mM (inactive).

Take `NC(=O)C(=O)NCc1ccc(Cl)cc1`: the Kd is > 4 mM (inactive). Turning to `CC(C)c1c(O)ccc2c1CCC1C(C)(C)CCC[C@]21C` (stereo partly specified), the Kd is > 4 mM (inactive). Then `O=C(Nc1cnccn1)c1cccc(C(F)(F)F)c1`, with > 4 mM (inactive); and `NC(=O)CS(=O)(=O)c1ccc(Cl)cc1`, with > 4 mM (inactive). For `CC1(C)O[C@H]2CC(=O)OC[C@]23[C@H]2CC[C@@]4(C)[C@H](c5ccoc5)OC(=O)[C@H]5O[C@]54[C@]2(C)C(=O)C[C@@H]13`, the Kd is > 4 mM (inactive). With `COc1ccccc1NC(=O)CCC(=O)O`, the Kd is > 4 mM (inactive).

Consider `CC1(C)CC(=O)c2cnn(-c3nc4ccccc4[nH]3)c2C1`, for which the Kd was > 4 mM (inactive). The figure for `COn1c(=O)c(C)[n+]([O-])c2ccccc21` is > 4 mM (inactive); for `CC(=O)NC(C)C12CC3CC(CC(C(=O)O)(C3)C1)C2` (stereo unspecified) it is > 4 mM (inactive); for `CC(=O)Nc1ccc(S(=O)(=O)NC2=NCCS2)cc1` it is > 4 mM (inactive).

With `CCN1CCn2c1nc(N1CCOCC1)nc2=O`, the Kd was > 4 mM (inactive).

Consider `Cn1cnnc1SCC(=O)Nc1ccccc1`, for which the Kd was > 4 mM (inactive). As for `O=[n+]1cc(C2=CC=CCC2)n([O-])c2c1CCCCC2`, the Kd was > 4 mM (inactive). `Cc1nn2c(=O)nc3sc4c(c3c2[nH]c1=O)CCCC4`: the Kd was > 4 mM (inactive). The figure for `O=C(CSc1ncnc2ccccc12)NCCCO` is > 4 mM (inactive); for `CC(CC(O)C1OC1(C)C)[C@@H]1CCC2(C)C3=CCC4C(C)(C)C(=O)CCC4(C)C3CC[C@@]12C` (stereo partly specified) it is > 4 mM (inactive); for `[O-][n+]1cc(O)c(CN2CCOCC2)c2ccccc21` it is > 4 mM (inactive). In the case of `Cn1cnnc1Sc1ncnc(N)c1[N+](=O)[O-]`, the Kd is > 4 mM (inactive). Regarding `O=C(NCc1ccco1)c1nc2ncccn2n1`, the Kd was > 4 mM (inactive).

Take `O=c1nc(C(F)(F)F)nc2ccccn12`: the Kd is > 4 mM (inactive). For `Cc1cc(SCC(=O)c2ccccc2)nc(=O)[nH]1`, the Kd was > 4 mM (inactive).

In the case of `Cc1cc(N2CCCC2=O)c(N)cc1N`, the Kd is > 4 mM (inactive).

These data come from PubChem BioAssay AID1549 (Sanford-Burnham Center for Chemical Genomics, 2009).
